Measurements reported in patent US11400084B2 (BioTheryX, Inc., priority 2018, dated 2022).
pIC50: −log10 of the molar value.

What was measured:
MOLM-13 cells [1] = test: MOLM-13 cell viability assay (CellTiter-Glo 2, 3 days, 2500 cells/well); format: cell-based; conditions: Homo sapiens, MOLM-13, 72 h, percentage of DMSO control
Protocol: MOLM-13 cells were cultured in RPMI 1640 media supplemented with 10% fetal bovine serum, streptomycin and penicillin, and were plated in white walled 96-well plates at 2500 cells/well. Cells were incubated in DMSO (control) or the indicated compound for 3 days at 37° C. and 5% CO2. Following the incubation period, 100 μL of CellTiterGlow2 (CTG2) reagent (CellTiter-Glo®2 Luminescent Cell Viability Assay, Promega (Madison, Wis.)) was added to each well. Following a 10 minutes incubation with shaking, luminescence was measured using the EnVision Multimode plate reader.
The MOLM-13 cell viability values, measured as percentages of the DMSO control, are reported in Table 8 as “A”, “B”, “C”, or “D.” “A” represents a % viability value of less than 40% (value<40%). “B” represents a % viability value of equal to or more than 40% and less than 60% (40%≤value<60%). “C” represents a % viability value of equal to or more than 60% and less than 90% (60%≤value<90%). “D” represents a % viability value of equal or more than 90% (value≥90%).

THLE-2 cells = test: Comparative study cell viability, THLE-2 cells (CTG2, 3 days); format: cell-based, human; conditions: for IC50 concentration as fold of the IC50 concentration of Compound 1: relative to Compound 1; for pIC50: Homo sapiens, 72 h, 3 days, read-out: reduced cell viability IC50
Protocol: (§1) Molm-13 and MV-4-11 cells (both leukemia cell lines) were cultured in RPMI 1640 media supplemented with 10% fetal bovine serum, streptomycin and penicillin, and were plated in white walled 96-well plates at 20,000 cells/well. THLE-2 cells (T-antigen immortalized human liver epithelial cells) were cultured using BEGM Bullet kit (Lonza CC-3170) supplemented with 10% fetal bovine serum, streptomycin and penicillin, and were plated in white walled 96-well plates 5000 cells/well. NHLF (normal human lung fibroblast) cells were cultured in DMEM media supplemented with 10% fetal bovine serum, streptomycin and penicillin, and were plated in white walled 96-well plates at 5000 cells/well. Cells were incubated in DMSO (control) or the indicated compounds for 3 days at 37° C. and 5% CO2. Following the incubation period, 100 μL of CellTiterGlow2 (CTG2) reagent (CellTiter-Glo®2 Luminescent Cell Viability Assay, Promega (Madison, Wis.)) was added to each well. Following a 10 minutes incubation with shaking, luminescence was measured using the Victor Wallac Luminometer or the Envision 2105 multimode plate reader.

MV-4-11 cells = test: Comparative study cell viability, MV-4-11 cells (CTG2, 3 days); format: cell-based; conditions: for IC50 concentration as fold of the IC50 concentration of Compound 1: relative to Compound 1; for pIC50: Homo sapiens, MV4-11, 72 h, 3 days, read-out: reduced cell viability IC50
Protocol: as §1

GSPT1 = target: T1, GSPT1 (Homo sapiens, UniProt P15170+Q96SW2); test: Western blot GSPT1 degradation assay in MV-4-11 cells; format: cell-based; conditions: for GSPT1 % Degradation at 1 μM: MV-4-11 cells, 6-8 hours; for reduced levels of GSPT1: comparative study
T1 construct: whole cell protein extracts were separated on 4-12% SDS-polyacrylamide gels; endogenous in cells; host or cells: MV-4-11
Protocol: (§2) MV-4-11 cells were grown in RPMI 1640 media supplemented with 10% fetal bovine serum, streptomycin and penicillin.
(§3) Cells were cultured at approximately 10^6 cells per mL and incubated in DMSO or the indicated compound for 6-8 hours. Whole cell extracts were prepared using RIPA buffer according to manufacturer's protocol (Pierce). Briefly, 3×10^6 cells were washed once in PBS, the cell pellets were resuspended in RIPA buffer and allowed to incubate for 15 minutes on ice. Cells debris was removed by centrifugation and the cleared whole cell lysates were transferred to new tubes for further analysis.
(§4) For Western blot analysis, whole cell protein extracts were separated on 4-12% SDS-polyacrylamide gels, transferred to nitrocellulose and probed with the indicated primary antibodies. Membranes were subsequently washed and probed with the appropriate IRDye secondary antibodies (LI-COR). The signal was detected using the Odyssey Imaging System (LI-COR).
(§5) The following antibodies were used in these studies: Anti-eRF3/GSPT1: Abcam, ab126090 (Cambridge, Mass.); Anti-Ikaros: Abcam, ab191394 (Cambridge, Mass.); Anti-CK1α: Abcam, ab108296 (Cambridge, Mass.); β-actin (8H10D10) mouse monoclonal antibody: Cell Signaling Technology, #3700 (Danvers, Mass.); IRDye 680RD Goat anti-rabbit antibody: LI-COR, 926-68071 (Lincoln, Nebr.); IRDye 800CW Goat anti-mouse antibody: LI-COR, 926-32210 (Lincoln, Nebr.).
(§6) In each of Tables 1-3, the % degradation values are reported as “A”, “B”, “C”, or “D.” “A” represents a % degradation value of less than 25% (value<25%); “B” represents a % degradation value of equal to or more than 25% and less than 50% (25%≤value<50%); “C” represents a % degradation value of equal to or more than 50% and less than 75% (50%≤value<75%); and “D” represents a % degradation value of equal to or more than 75% (value≥75%).

CK1α = target: T2, CK1α (Homo sapiens, UniProt P48729+Q96SW2); test: Western blot CK1α degradation assay in MV-4-11 cells; format: cell-based; conditions: 6-8 hours
T2 construct: endogenous in cells; host or cells: MV-4-11
Protocol: as §2, §3, §4, §5, §6

IKAROS = target: T3, IKAROS (Homo sapiens, UniProt Q13422+Q96SW2); test: Western blot IKAROS degradation assay in MV-4-11 cells; format: cell-based; conditions: 6-8 hours
T3 construct: endogenous in cells; host or cells: MV-4-11
Protocol: as §2, §3, §4, §5, §6

NHLF cells = test: Comparative study cell viability, NHLF cells (CTG2, 3 days); format: cell-based; conditions: Homo sapiens, 72 h, read-out: reduced cell viability IC50
Protocol: as §1

MOLM-13 cells [2] = test: Comparative study cell viability, Molm-13 cells (CTG2, 3 days); format: cell-based; conditions: Homo sapiens, 72 h, read-out: reduced cell viability IC50
Protocol: as §1

PBMCs = test: Comparative study cell viability, LPS-induced PBMCs (CTG); format: cell-based; conditions: PBMC, LPS 18-24 hr, read-out: reduced cell viability IC50
Protocol: Frozen […] blood mononuclear cells (PBMCs) were purchased from AllCells. Cells were quick thawed, washed with RPMI-1640/10% FBS/1% Penicillin/1% Streptomycin and plated in 96 well plates at 200,000 cells/well. Cells were pretreated with DMSO or the indicated compound for 1 hr and then induced with 100 ng/mL lipopolysaccharide (LPS) for 18-24 hr. Following the incubation period, 100 μL of CTG reagent was added to each well. Plates were incubated on the shaker at RT for 2 min. Following a 10 min incubation without shaking, luminescence was measured using the Envision 2105 multimode plate reader.

IL-2 = IL-2 fold-change assay, anti-CD3 stimulated PBMCs, Mesoscale; format: cell-based; conditions: Homo sapiens, PBMC, 24 h, fold difference from the DMSO control
Protocol: For the IL-2 analysis, 96 well plates were precoated with 1 μg/mL anti-human CD3 antibody (OKT3, eBioscience Inc., San Diego, Calif.). After washing with PBS, the indicated compound was added (50 μL/well) followed by PBMCs diluted at 3-4 million cells/mL (150 μL/well). Plates were incubated for 24 h and the supernatants collected for Mesoscale IL-2 analysis. IL-2 activity is measured as fold difference from the DMSO control.
In Table 7, the fold-change values are reported as “A”, “B”, “C”, or “D”. “A” represents a fold-change value of equal to or less than 1 (value≤1); “B” represents a fold-change value of more than 1 and equal to or less than 2 (1<value≤2); “C” represents a fold-change value of more than 2 and equal to or less than 3 (2<value≤3); and “D” represents a fold-change value of more than 3 (value>3).

TNFα = test: TNF-α inhibition assay, LPS-induced PBMCs or CD14+ monocytes, Meso Scale; format: cell-based; conditions: 100 ng/mL LPS 18-24 h
Protocol: (§7) Either frozen primary blood mononuclear cells (PBMCs) or frozen CD14+ mobilized peripheral blood monocytes were purchased from AllCells (PB003F, Normal Peripheral Blood MNC (Alameda, Calif.)). Cells were quick thawed, washed 1-time with RPMI-1640 (10% FBS/1% Pen-Strep) and plated in 96 well plates at 200,000 cells per well. Cells were pretreated with DMSO only or with the indicated compound for 1 h and then induced with 100 ng/mL lipopolysaccharide (LPS) for 18-24 h. The supernatant was analyzed for IL-1β, IL-6, and TNFα, using Meso Scale assay according to manufacturer's protocol. The negative control wells were treated with DMSO.

IL-1β = IL-1β inhibition assay, LPS-induced PBMCs or CD14+ monocytes, Meso Scale; format: cell-based; conditions: 100 ng/mL LPS 18-24 h
Protocol: as §7

T2 sequence (P48729 whole entry): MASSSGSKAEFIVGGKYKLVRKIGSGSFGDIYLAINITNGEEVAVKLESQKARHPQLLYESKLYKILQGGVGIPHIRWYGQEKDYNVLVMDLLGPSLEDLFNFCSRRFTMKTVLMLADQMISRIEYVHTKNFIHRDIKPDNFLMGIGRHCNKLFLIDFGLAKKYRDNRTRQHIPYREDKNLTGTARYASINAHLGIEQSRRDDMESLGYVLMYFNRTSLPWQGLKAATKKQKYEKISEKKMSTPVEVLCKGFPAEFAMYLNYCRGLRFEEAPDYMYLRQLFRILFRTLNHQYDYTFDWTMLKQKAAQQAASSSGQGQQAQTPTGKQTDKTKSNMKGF
T2 sequence (Q96SW2 whole entry): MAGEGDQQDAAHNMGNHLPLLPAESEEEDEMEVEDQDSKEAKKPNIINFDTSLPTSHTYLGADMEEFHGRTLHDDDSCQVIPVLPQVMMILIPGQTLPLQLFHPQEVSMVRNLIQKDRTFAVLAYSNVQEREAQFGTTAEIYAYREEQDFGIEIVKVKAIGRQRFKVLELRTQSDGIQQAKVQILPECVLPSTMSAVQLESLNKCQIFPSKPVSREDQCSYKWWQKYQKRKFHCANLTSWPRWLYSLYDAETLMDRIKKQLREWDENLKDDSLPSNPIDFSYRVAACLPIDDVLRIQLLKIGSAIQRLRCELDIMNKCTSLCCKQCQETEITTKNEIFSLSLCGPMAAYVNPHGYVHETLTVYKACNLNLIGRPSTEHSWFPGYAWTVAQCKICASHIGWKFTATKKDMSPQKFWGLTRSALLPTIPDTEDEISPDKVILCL
T2 sequence (Q16531 whole entry partner): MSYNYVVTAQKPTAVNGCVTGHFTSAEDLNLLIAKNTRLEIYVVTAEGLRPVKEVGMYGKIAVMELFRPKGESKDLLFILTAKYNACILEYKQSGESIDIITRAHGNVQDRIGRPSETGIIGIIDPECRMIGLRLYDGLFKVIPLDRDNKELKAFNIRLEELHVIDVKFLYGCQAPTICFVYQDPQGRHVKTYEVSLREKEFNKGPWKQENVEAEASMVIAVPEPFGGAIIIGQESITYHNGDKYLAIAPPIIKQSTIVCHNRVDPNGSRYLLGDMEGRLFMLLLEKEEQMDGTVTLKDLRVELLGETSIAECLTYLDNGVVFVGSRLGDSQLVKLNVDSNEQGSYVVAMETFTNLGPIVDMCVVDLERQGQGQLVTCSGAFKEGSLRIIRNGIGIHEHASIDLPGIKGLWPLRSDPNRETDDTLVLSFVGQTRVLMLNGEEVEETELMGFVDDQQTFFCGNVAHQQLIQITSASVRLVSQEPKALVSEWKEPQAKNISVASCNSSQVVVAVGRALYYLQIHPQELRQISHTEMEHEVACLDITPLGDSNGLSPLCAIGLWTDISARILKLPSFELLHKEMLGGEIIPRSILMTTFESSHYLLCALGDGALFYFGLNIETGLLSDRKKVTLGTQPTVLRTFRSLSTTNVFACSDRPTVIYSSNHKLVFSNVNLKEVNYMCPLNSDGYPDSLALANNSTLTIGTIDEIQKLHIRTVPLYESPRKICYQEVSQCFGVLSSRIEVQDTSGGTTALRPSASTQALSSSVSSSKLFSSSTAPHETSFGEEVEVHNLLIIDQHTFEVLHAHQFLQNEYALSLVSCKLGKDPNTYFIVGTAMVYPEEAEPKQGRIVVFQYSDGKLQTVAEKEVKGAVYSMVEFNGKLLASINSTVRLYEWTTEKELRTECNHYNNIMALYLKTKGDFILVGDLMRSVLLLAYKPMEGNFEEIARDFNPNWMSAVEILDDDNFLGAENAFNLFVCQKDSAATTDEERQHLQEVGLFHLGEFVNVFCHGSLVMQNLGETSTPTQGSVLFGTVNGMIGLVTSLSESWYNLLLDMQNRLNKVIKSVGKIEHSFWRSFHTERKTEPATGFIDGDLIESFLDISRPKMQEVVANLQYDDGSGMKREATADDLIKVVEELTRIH
T1 sequence (P15170 whole entry): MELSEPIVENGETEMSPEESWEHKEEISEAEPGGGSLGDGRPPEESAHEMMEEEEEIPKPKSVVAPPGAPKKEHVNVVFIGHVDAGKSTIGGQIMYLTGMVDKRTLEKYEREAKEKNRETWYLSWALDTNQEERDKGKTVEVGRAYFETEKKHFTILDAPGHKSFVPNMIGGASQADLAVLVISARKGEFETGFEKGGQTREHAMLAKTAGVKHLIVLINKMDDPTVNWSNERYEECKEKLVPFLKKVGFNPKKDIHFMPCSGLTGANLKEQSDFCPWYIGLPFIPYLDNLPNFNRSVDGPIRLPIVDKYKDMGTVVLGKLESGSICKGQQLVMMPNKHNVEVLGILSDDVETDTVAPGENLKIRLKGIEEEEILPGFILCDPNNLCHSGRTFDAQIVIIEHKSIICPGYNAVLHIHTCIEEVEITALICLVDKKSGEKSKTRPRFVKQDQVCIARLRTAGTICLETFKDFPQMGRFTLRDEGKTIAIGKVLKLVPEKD
T1 sequence (Q96SW2 whole entry): as the sequence (Q96SW2 whole entry) above
T1 sequence (Q16531 whole entry partner): as the sequence (Q16531 whole entry partner) above
T3 sequence (Q13422 whole entry): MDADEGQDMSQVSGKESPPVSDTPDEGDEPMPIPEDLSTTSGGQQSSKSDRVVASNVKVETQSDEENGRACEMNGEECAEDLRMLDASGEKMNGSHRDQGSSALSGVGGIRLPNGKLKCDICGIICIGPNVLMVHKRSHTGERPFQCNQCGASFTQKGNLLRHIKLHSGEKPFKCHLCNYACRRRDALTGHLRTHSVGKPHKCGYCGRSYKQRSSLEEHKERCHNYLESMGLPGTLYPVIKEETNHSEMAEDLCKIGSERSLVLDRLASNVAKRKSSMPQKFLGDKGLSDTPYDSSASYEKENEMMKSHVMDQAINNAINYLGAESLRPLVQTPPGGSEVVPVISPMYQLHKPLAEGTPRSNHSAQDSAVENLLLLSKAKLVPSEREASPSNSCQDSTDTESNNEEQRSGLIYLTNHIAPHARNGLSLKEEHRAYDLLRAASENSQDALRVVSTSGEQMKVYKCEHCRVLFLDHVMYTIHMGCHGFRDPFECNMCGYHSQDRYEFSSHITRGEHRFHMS
T3 sequence (Q96SW2 whole entry): as the sequence (Q96SW2 whole entry) above
T3 sequence (Q16531 whole entry partner): as the sequence (Q16531 whole entry partner) above

Row | Compound | viability at 1 µM (MOLM-13 cells [1]) [%] | IC50 concentration as fold of the IC50 concentration of Compound 1 (THLE-2 cells) | IC50 concentration as fold of the IC50 concentration of Compound 1 (MV-4-11 cells) | GSPT1 % Degradation at 1 μM (GSPT1; 1 μM) | CK1α % Degradation at 1 μM (CK1α) | IKAROS % Degradation at 1 μM (IKAROS) | pIC50 (NHLF cells) | pIC50 (MOLM-13 cells [2]) | pIC50 (THLE-2 cells) | pIC50 (PBMCs) | pIC50 (MV-4-11 cells) | reduced levels of GSPT1 (GSPT1; 0.1 μM) [%] | reduced levels of GSPT1 (GSPT1; 1 μM) [%] | fold induction at 1 µM (IL-2) | inhibition at 1 µM (TNFα) [%] | inhibition at 1 µM (IL-1β) [%]
1 | CC(C)(C)c1ccc(NCC(=O)NCc2ccc3c(c2)CN(C2CCC(=O)NC2=O)C3=O)cc1 (stereo not drawn) [Compound 17, 2-((4-(tert-butyl)phenyl)amino)-N-((2-(2,6-dioxopiperidin-3-yl)-1-oxoisoindolin-5-yl)methyl)acetamide] | 60 to 90 | about 1.5 fold | about 1 fold | D (a % degradation value of equal to or more than 75% (value≥75%)) | C (a % degradation value of equal to or more than 50% and less than 75% (50%≤value<75%)) | C (a % degradation value of equal to or more than 50% and less than 75% (50%≤value<75%)) | – | – | – | – | – | – | – | – | – | –
2 | Cc1ccc(NC(=O)NCc2ccc3c(c2)CN(C2CCC(=O)NC2=O)C3=O)cc1Cl (stereo not drawn) [Compound A, reference compound] | – | – | – | – | – | – | 7.50 | 9.19 | 8.21 | 8.22 | 8.73 | 82 | 98 | – | – | –
3 | Cc1ccc(NCC(=O)NCc2ccc3c(c2)CN(C2CCC(=O)NC2=O)C3=O)cc1Cl (stereo not drawn) [Compound 1, 2-((3-Chloro-4-methylphenyl)amino)-N-((2-(2,6-dioxopiperidin-3-yl)-1-oxoisoindolin-5-yl)methyl)acetamide] | > 90 | – | – | D (a % degradation value of equal to or more than 75% (value≥75%)) | B (a % degradation value of equal to or more than 25% and less than 50% (25%≤value<50%)) | D (a % degradation value of equal to or more than 75% (value≥75%)) | < 5.00 | 7.13 | < 5.00 | < 5.00 | 7.71 | 92 | 93 | – | – | –
4 | O=C(CNc1ccccc1)NCc1ccc2c(c1)CN(C1CCC(=O)NC1=O)C2=O (stereo not drawn) [Compound 16, N-((2-(2,6-dioxopiperidin-3-yl)-1-oxoisoindolin-5-yl)methyl)-2-(phenylamino)acetamide] | 60 to 90 | over 3 fold | over 2 fold | B (a % degradation value of equal to or more than 25% and less than 50% (25%≤value<50%)) | – | – | – | – | – | – | – | – | – | – | – | –
5 | Cc1ccc(NCC(=O)NCc2ccc3c(c2)CN(C2CCC(=O)NC2=O)C3=O)cc1N(C)C (stereo not drawn) [Compound 18, 2-((3-(dimethylamino)-4-methylphenyl)amino)-N-((2-(2,6-dioxopiperidin-3-yl)-1-oxoisoindolin-5-yl)methyl)acetamide] | > 90 | about 1 fold | about 0.5 fold | D (a % degradation value of equal to or more than 75% (value≥75%)) | B (a % degradation value of equal to or more than 25% and less than 50% (25%≤value<50%)) | – | – | – | – | – | – | – | – | ≤ 1 | 30 to 50 | 30 to 50
